The record followed here is patent US20260335294A1, “TREATING CONGENITAL DISORDERS OF GLYCOSYLATION” (Mayo Foundation for Medical Education and Research, priority 2022, published 2026).

In one assay the test system is PMM2-CDG patient (P5). Kind of assay: Fructose tolerance test, urine polyols. Type of assay: in vivo, human. The conditions noted are these: P5, fasting, 1 g/kg oral fructose. How it is done: Fructose tolerance test was performed in P5 according to the standard clinical protocol at fasting state with 1 g/kg oral fructose, and the first voided urine was collected.

In assay [1] the test system is patient and control fibroblasts. As to the kind of experiment: 13C6-fructose incubation of fibroblasts, polyol and hexose pools. Type of assay: cell-based, human. To be noted: 0.15 mM 13C6-fructose, 5.5 mM glucose. How it is done: Next, the influence of dietary fructose on the urine polyol levels in PMM2-CDG was evaluated. Fructose has become one of the major sources of energy in the western diet and has been associated with numerous disorders such as diabetes, hypertension, obesity, etc. Peripheral fasting fructose levels range between 0.01-0.07 mM and can increase by 5-fold after consumption of a fructose rich meal. […] The possibility of fructose contributing to the polyols increase seen in PMM2-CDG was therefore tested. First, a fructose tolerance test in individuals with PMM2-CDG (P5) was performed. […] Then, to investigate the contribution of fructose in intracellular polyol accumulation, patient and control fibroblasts were incubated in the presence of 5.5 mM glucose and 0.15 mM (average blood fructose concentration upon fructose rich meal)^13C6-fructose and medium containing dialyzed FBS (FIG. 2A).

Consider `O=C(CO)[C@@H](O)[C@H](O)[C@H](O)CO` [fructose], for which, in the assay on PMM2-CDG patient (P5), the “fold increase of urine mannitol after fructose tolerance test” value is 3 times and the “fold increase of urine sorbitol after fructose tolerance test” value is reported as “approximately 7 times”.
As to `OCC1(O)OC[C@@H](O)[C@@H](O)[C@@H]1O` (some centres unmarked) [^13C6-fructose], in assay [1] (PMM2-CDG and controls), the “Fractional Contribution (FC) in total hexose pool” value came out at 4%. For the same compound, in assay [1] (dialyzed FBS), the hexose pool abundance result was “increase” and the polyol pool abundance entry is recorded as “increase”.
